Assay [1] has as its target T1, Alpha-1B adrenergic receptor (Rattus norvegicus, UniProt P15823).
T1 sequence (P15823 whole entry): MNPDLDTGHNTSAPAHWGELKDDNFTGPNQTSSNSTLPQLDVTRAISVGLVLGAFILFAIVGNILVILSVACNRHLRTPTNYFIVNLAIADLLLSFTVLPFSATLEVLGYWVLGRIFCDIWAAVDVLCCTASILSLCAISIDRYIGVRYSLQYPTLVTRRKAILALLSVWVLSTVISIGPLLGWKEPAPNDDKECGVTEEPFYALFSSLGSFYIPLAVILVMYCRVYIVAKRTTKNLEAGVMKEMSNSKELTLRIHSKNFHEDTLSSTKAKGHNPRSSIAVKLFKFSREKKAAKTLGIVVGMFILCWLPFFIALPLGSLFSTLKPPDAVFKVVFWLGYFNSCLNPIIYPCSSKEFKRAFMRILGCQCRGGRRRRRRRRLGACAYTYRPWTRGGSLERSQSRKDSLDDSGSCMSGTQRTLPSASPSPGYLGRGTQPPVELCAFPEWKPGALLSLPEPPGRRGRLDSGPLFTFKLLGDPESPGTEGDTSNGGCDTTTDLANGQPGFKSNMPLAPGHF
As to the kind of experiment: DRUGMATRIX: Alpha-1B adrenergic receptor radioligand binding (ligand: prazosin). The assay is classed as cell membranes, Wistar, Liver, Membrane. The following applies: Not Active = under 50% inhibition at 10 µM.

Assay [2] in a line: DRUGMATRIX: Calcium Channel Type L, Dihydropyridine radioligand binding (ligand: [3H] Nitrendipine). The assay is classed as cell membranes, Rattus norvegicus, Wistar, Cerebral cortex, Membrane. The following applies: Not Active = under 50% inhibition at 10 µM.
Assay [3] has as its target 5-hydroxytryptamine receptor 4 (Cavia porcellus, UniProt O70528). Type of assay: cell membranes, Dunkin-Hartley, Striatum, Membrane. Note: in other assays of this panel Not Active means under 50% inhibition at 10 µM.
Assay [4] can be described thus: DRUGMATRIX: Glutamate, NMDA, Phencyclidine radioligand binding (ligand: [3H] TCP). The assay is classed as cell membranes, Rattus norvegicus, Wistar, Cerebral cortex, Membrane. The following applies: Not Active = under 50% inhibition at 10 µM.
In another assay the target is Glycine receptor (Rattus norvegicus, UniProt P22771+P24524+P07727+P20781). Type of assay: cell membranes, Wistar, Spinal cord, Membrane. Note: in other assays of this panel Not Active means under 50% inhibition at 10 µM.
Assay [5] can be described thus: DRUGMATRIX: Interleukin IL-1 radioligand binding (ligand: [125I] interleukin 1beta). Type of assay: cell membranes, Membrane. The following applies: nih3t3; Not Active = under 50% inhibition at 10 µM.
In assay [6] the target is T2, Polyunsaturated fatty acid lipoxygenase ALOX15 (Oryctolagus cuniculus, UniProt P12530).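 Note: inhibition of 15-lipoxygenase enzyme activity measured with linoleic acid as the substrate; in other assays of this panel Not Active means under 50% inhibition at 10 µM.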
T2 sequence (P12530 whole entry): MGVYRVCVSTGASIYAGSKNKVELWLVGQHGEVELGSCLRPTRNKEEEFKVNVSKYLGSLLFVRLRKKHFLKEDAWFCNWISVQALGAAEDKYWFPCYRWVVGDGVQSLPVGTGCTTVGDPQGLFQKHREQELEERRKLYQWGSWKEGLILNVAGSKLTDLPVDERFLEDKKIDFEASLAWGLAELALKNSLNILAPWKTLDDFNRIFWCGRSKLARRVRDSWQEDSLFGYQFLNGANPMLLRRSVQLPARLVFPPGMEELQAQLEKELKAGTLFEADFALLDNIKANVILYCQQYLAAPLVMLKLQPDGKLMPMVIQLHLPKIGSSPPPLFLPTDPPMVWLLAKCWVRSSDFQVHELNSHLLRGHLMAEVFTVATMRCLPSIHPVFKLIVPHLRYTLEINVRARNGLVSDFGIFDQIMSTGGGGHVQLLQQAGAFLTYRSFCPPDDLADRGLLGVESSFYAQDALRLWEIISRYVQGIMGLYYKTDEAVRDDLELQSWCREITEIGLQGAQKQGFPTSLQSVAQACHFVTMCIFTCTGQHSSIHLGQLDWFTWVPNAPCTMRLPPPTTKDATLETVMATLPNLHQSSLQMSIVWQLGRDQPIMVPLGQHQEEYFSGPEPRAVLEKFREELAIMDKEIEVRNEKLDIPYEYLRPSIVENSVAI
As to the kind of experiment: biochemical. The assay is classed as tissue-based, Reticulocytes. The following applies: reticulocytes.

The target of assay [7] is T3, Neuropeptide Y receptor type 1 (Homo sapiens, UniProt P25929). Note: in other assays of this panel Not Active means under 50% inhibition at 10 µM.
T3 sequence (P25929 whole entry): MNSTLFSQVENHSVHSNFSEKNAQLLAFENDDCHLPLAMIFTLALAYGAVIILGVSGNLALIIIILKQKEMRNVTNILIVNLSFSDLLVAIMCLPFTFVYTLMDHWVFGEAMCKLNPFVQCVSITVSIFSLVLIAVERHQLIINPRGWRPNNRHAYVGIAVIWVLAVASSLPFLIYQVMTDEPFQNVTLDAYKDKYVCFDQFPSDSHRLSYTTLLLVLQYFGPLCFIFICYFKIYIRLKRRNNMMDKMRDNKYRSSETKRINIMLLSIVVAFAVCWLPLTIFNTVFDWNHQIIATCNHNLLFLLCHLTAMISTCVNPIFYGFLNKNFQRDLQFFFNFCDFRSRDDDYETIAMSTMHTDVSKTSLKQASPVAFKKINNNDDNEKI
Type of assay: cell membranes, Membrane. The settings on record: sk-n-mc.

The next assay has as its target T4, Neutrophil elastase (Homo sapiens, UniProt P08246).
T4 sequence (P08246 whole entry): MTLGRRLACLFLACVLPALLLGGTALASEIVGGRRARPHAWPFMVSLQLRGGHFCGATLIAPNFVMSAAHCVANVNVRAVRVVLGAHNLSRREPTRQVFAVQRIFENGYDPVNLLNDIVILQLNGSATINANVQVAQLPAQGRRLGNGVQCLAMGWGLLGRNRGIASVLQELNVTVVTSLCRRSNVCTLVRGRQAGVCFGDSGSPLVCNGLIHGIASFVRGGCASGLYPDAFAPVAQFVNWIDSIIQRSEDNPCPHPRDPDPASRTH
The assay is classed as tissue-based.

The next assay deals with T5, Interstitial collagenase (Homo sapiens, UniProt P03956).
T5 sequence (P03956 whole entry): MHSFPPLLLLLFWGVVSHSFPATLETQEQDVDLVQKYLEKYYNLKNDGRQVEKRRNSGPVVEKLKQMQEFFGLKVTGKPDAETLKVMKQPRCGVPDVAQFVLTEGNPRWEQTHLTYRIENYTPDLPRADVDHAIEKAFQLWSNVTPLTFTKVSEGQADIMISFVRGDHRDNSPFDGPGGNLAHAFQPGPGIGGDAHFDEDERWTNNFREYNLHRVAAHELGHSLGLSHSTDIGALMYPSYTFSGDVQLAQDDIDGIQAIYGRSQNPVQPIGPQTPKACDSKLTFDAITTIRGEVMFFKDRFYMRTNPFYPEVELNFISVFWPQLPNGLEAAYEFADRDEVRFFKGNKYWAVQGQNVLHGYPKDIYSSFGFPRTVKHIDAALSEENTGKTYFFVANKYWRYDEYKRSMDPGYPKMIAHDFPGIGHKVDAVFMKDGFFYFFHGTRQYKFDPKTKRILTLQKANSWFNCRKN
The assay is classed as tissue-based, Rheumatoid synovial fibroblasts.

The target of a further assay is Adenosine receptor A2a (Homo sapiens, UniProt P29274). Nature of the assay: DRUGMATRIX: Adenosine A2A radioligand binding (ligand: […]). The settings on record: hek293; Not Active = under 50% inhibition at 10 µM. Type of assay: cell membranes, HEK293, Membrane.

Results on five compounds are retold here after ChEMBL document CHEMBL1909046, “DrugMatrix in vitro pharmacology data”.

Sequence of 5-hydroxytryptamine receptor 4 (O70528 whole entry): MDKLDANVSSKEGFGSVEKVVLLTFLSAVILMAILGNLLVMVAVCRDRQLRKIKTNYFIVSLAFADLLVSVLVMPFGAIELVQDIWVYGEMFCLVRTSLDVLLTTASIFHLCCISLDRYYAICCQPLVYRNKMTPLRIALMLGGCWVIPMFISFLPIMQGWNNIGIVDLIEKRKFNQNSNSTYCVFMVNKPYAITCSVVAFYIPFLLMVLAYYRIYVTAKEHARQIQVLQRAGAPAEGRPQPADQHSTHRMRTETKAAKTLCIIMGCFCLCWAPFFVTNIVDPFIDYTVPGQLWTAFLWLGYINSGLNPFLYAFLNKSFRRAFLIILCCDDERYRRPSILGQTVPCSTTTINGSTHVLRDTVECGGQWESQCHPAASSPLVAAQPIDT
Sequence of Adenosine receptor A2a (P29274 whole entry): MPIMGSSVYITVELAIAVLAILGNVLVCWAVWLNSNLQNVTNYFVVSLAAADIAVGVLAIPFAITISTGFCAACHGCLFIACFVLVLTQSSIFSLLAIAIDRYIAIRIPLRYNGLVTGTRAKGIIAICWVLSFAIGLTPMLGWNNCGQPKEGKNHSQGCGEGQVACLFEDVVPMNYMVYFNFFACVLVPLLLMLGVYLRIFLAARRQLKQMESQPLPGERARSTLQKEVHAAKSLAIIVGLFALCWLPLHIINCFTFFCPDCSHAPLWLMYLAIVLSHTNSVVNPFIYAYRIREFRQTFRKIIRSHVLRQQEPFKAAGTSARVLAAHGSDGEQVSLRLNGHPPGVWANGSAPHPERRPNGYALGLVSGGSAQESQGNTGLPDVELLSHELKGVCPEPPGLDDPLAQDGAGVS

For orientation: IC50 means the concentration at which inhibition is half-maximal. What is called Ki is the dissociation constant of the complex between target and ligand, obtained from inhibition or displacement. Regarding `CC(C)[C@H](N)C(=O)OCCOCn1cnc2c(=O)nc(N)[nH]c21` [VALACYCLOVIR], the IC50 entry (in [1]; in assay [2]; in assay [3]; in assay [4]; on Glycine receptor; in [5]) was “Not Active” each time. Besides, the IC50 entry (in [6]; in assay [7]; against Neutrophil elastase; against Interstitial collagenase; at Adenosine receptor A2a) was “Not Active” throughout. The inhibitory constant (Ki) result in assay [2], in [4] and in assay [5] was “Not Active” each time.

In the case of `CN[C@H](CC(C)C)C(=O)N[C@H]1C(=O)N[C@@H](CC(N)=O)C(=O)N[C@H]2C(=O)N[C@H]3C(=O)N[C@H](C(=O)N[C@H](C(=O)O)c4cc(O)cc(O)c4-c4cc3ccc4O)[C@H](O)c3ccc(c(Cl)c3)Oc3cc2cc(c3O[C@@H]2O[C@H](CO)[C@@H](O)[C@H](O)[C@H]2O[C@H]2C[C@](C)(N)[C@H](O)[C@H](C)O2)Oc2ccc(cc2Cl)[C@H]1O` [VANCOMYCIN], the IC50 entry (in assay [1]; in assay [2]; in assay [3]; in assay [4]; against Glycine receptor; in [5]) was “Not Active” in each case. The IC50 result (in [6]; in [7]; against Neutrophil elastase; at Interstitial collagenase; at Adenosine receptor A2a) was “Not Active” in each case. Besides, the Ki entry in [2], in assay [4] and in [5] was “Not Active” each time.

`COc1ccc(C(CN(C)C)C2(O)CCCCC2)cc1` (centres undefined) [VENLAFAXINE]: the IC50 entry (in assay [1]; in assay [2]; in [3]; in assay [4]; against Glycine receptor; in assay [5]) was “Not Active” each time. Further, the IC50 result (in assay [6]; in [7]; on Neutrophil elastase; at Interstitial collagenase; on Adenosine receptor A2a) was “Not Active” in each case. The Ki result in assay [2], in [4] and in [5] was “Not Active” in each case.

With `COC(=O)[C@@H]1[C@H]2C[C@H]3c4[nH]c5ccccc5c4CCN3C[C@@H]2CC[C@@H]1O` [YOHIMBINE], the IC50 in assay [1] (read-out: IC50) is 1190 nM; in assay [2], “Not Active”; in assay [3], “Not Active”; in assay [4] it was “Not Active”; against Glycine receptor it was “Not Active”; in assay [5], “Not Active”. For the same compound, the IC50 result (in assay [6]; in [7]; against Neutrophil elastase; on Interstitial collagenase; on Adenosine receptor A2a) was “Not Active” in each case. Also, the Ki was 658 nM in assay [1] (read-out: Ki), “Not Active” in assay [2], “Not Active” in assay [4] and “Not Active” in assay [5].

On to IVERMECTIN, for which the IC50 entry in assay [1] was “Not Active”; in [2], “Not Active”; in [3] it was “Not Active”; in [4], “Not Active”; at Glycine receptor (read-out: IC50), 375 nM; in assay [5] it was “Not Active”. In addition, the IC50 result (in assay [6]; in assay [7]; against Neutrophil elastase; on Interstitial collagenase; on Adenosine receptor A2a) was “Not Active” throughout. Also, the Ki result in assay [1] was “Not Active”; in assay [2] it was “Not Active”; in assay [3] it was “Not Active”; in assay [4] it was “Not Active”; at Glycine receptor (read-out: Ki), 212 nM; in [5] it was “Not Active”. For the same compound, the Ki result (in [6]; in assay [7]; at Neutrophil elastase; on Interstitial collagenase; at Adenosine receptor A2a) was “Not Active” in each case.
